Experimental data from article PMC10232439, “Identification of photocrosslinking peptide ligands by mRNA display” (Communications Chemistry, 2023).
Blank lines part the entries; values can stand above or below the molecule they belong to. Where a SMILES comes first, the peptide text is derived from it. Bridges are numbered along the chain shown (N, C = ends). Where no end group is shown, it is not given here. [ ]: non-standard residue; d: D form. The star is where a group is joined. 5FAM = O=C1OC2(c3ccc(O)cc3Oc3cc(O)ccc32)c2ccc(C(=O)*)cc21; Bpa = N[C@@H](Cc1ccc(C(=O)c2ccccc2)cc1)C(=O)O

Assays:
[1] = target: T1, BRD3-BD2 (Homo sapiens, UniProt Q15059); assay: Direct fluorescence anisotropy binding assay; settings: direct fluorescence anisotropy with FAM-labelled peptide (100 nM final), 12-point 2-fold dilution of BRD3-BD2, 30 min rt, read at 25 °C; mean of at least three replicates ± SD
T1 construct: BRD3-BD2 (306–421, Q15059); Avi tag (biotinylated in vivo; vector pQE80L-Navi); made in house; host or cells: Escherichia coli BL21(DE3)
Procedure: Binding affinities for the two fluorescently tagged peptides were then determined using a direct fluorescence anisotropy assay (Fig. 2d and Supplementary Fig. S6). […] Having established that our peptides were able to bind to BRD3-BD2, we next assessed the crosslinking efficiency of the unlabelled variants. We were pleased to find that both peptides efficiently cross-linked to BRD3-BD2 upon exposure to UV light. After incubation with two equivalents of peptide and irradiation at 365 nm for only 5 min, we observed around 40% protein modification as analysed by sample separation on an SDS-PAGE gel and Coomassie staining. […]
(§1) S7. Direct fluorescence anisotropy assay […]
(§2) After 30 min, fluorescence anisotropy was measured with a CLARIOstar plate reader (BMG Labtech) using excitation at 482 nm and emissions at 530 nm at 25 °C. […] KD values were calculated using GraphPad Prism and a curve fitted using a one site - total fitting model. […]
(§3) Irradiated samples were analysed by SDS-PAGE on 4–20% Bis-Tris gels (mPAGE, Millipore).
(§4) Experiments with Bpa-P1 and Bpa-P2 were visualised by Quick Coomassie staining (Neo Biotech) with gels imaged on a Chemidoc MP Imaging System (Biorad) and quantified by Fiji. Experiments with Bpa-P1-FAM and Bpa-P2-FAM were visualised by in gel fluorescence imaging using a Typhoon FLA 9500 […]
Irradiated samples with BRD3-BD2 were further analysed by LCMS. […]

[2] = target: T1, BRD3-BD2; assay: Photocrosslinking of BRD3-BD2, SDS-PAGE/Coomassie densitometry; type: biochemical; settings: BRD3-BD2 20 µM, peptide 40 µM (two equivalents), 365 nm for 40 min, 0 °C; SDS-PAGE, Coomassie; mean of triplicate
Procedure: Fig. 3 Photocrosslinking of BRDs with pBpa-containing ligands. a Crosslinking between BRD3-BD2 (20 µM) and cyclic peptides (40 µM) after exposure to UV irradiation (365 nm) for variable amounts of time (0, 5, 10, 20, 40 min). Samples were separated on an SDS-PAGE gel and visualised by Coomassie staining. b Plot of percentage of cross-linked BRD3-BD2 calculated by densitometric analysis of protein bands from (a). Crosslinking efficiencies are represented as the mean of triplicate experiments ±1 standard deviation. c Crosslinking of BRD3-BD2/BRD2-BD2/BRD4-BD2/BRD3-BD1 (2 µM) by cyclic peptides (20 µM) after exposure to UV irradiation for 30 min. Samples were analysed and processed as described in (a, b). […]
as §1, §2, §3, §4

[3] = target: BRD3-BD1; settings: tight binding peptide to its target protein BRD3-BD1; cited from earlier work
[4] = target: T2, second bromodomain of BRD3 (BRD3-BD2), biotinylated (human (from the printed accession), UniProt Q15059 306-421, biotin (biotinylated; cultures induced with IPTG and 100 µM biotin)); assay: SPR; peptide 3.2B on BRD3-BD2 cross-linked to Bpa-P1 or Bpa-P2; mean ± standard deviation of the mean; settings: both partners purified
T2 construct: BRD3, second bromodomain, residues 306-421 of Q15059; also called wild-type BRD3-BD2; source: E. coli BL21(DE3), purified (HisTrap, Superdex 75)
T2 sequence (Q15059 306-421): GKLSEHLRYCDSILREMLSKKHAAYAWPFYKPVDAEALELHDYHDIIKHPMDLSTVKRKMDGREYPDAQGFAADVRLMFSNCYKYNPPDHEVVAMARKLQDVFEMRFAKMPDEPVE

T1 sequence (Q15059 306-421): as above

Molecule: CC(C)C[C@@H]1NC(=O)[C@H](Cc2ccc(O)cc2)NC(=O)[C@H](Cc2ccc(C(=O)c3ccccc3)cc2)NC(=O)[C@H](CC(=O)O)NC(=O)[C@H](CC(=O)O)NC(=O)[C@H](CC(N)=O)NC(=O)[C@H](C(C)C)NC(=O)[C@H](CO)NC(=O)[C@H](CC(N)=O)NC(=O)[C@H](CC(C)C)NC(=O)[C@@H](Cc2ccc(O)cc2)NC(=O)CSC[C@@H](C(=O)NCC(=O)N[C@@H](CCCCNC(=O)c2ccc3c(c2)C(=O)OC32c3ccc(O)cc3Oc3cc(O)ccc32)C(N)=O)NC(=O)[C@H](Cc2ccc(O)cc2)NC(=O)[C@H](C)NC1=O [Bpa-P1-FAM] ({CH2CO}-[dY]LNSVNDD[Bpa]YLAYCGK(5FAM)-NH2; thioether N-14)
- Kd [1]: 29 ± 10 µM

Molecule: CC(C)C[C@@H]1NC(=O)[C@H](Cc2ccc(O)cc2)NC(=O)[C@H](Cc2ccc(C(=O)c3ccccc3)cc2)NC(=O)[C@H](CC(=O)O)NC(=O)[C@H](CC(=O)O)NC(=O)[C@H](CC(N)=O)NC(=O)[C@H](C(C)C)NC(=O)[C@H](CO)NC(=O)[C@H](CC(N)=O)NC(=O)[C@H](CC(C)C)NC(=O)[C@@H](Cc2ccc(O)cc2)NC(=O)CSC[C@@H](C(=O)NCC(N)=O)NC(=O)[C@H](Cc2ccc(O)cc2)NC(=O)[C@H](C)NC1=O [Bpa-P1] ({CH2CO}-[dY]LNSVNDD[Bpa]YLAYCG-NH2; thioether N-14)
- protein modification (cross-linked BRD3-BD2) [2]: 96%

Molecule: CC[C@H](C)[C@@H]1NC(=O)[C@H](Cc2ccccc2)NC(=O)[C@H](Cc2ccc(C(=O)c3ccccc3)cc2)NC(=O)[C@H]([C@@H](C)O)NC(=O)[C@H](CC(=O)O)NC(=O)CNC(=O)[C@H](CCCCN)NC(=O)[C@H](C)NC(=O)[C@H](CC(N)=O)NC(=O)[C@H](CC(C)C)NC(=O)[C@@H](Cc2ccc(O)cc2)NC(=O)CSC[C@@H](C(=O)NCC(=O)N[C@@H](CCCCNC(=O)c2ccc3c(c2)C(=O)OC32c3ccc(O)cc3Oc3cc(O)ccc32)C(N)=O)NC(=O)[C@H](Cc2ccc(O)cc2)NC(=O)[C@H]([C@@H](C)CC)NC1=O [Bpa-P2-FAM] ({CH2CO}-[dY]LNAKGDT[Bpa]FIIYCGK(5FAM)-NH2; thioether N-14)
- Kd [1]: 14 ± 1 µM

Molecule: CC[C@H](C)[C@@H]1NC(=O)[C@H](Cc2ccccc2)NC(=O)[C@H](Cc2ccc(C(=O)c3ccccc3)cc2)NC(=O)[C@H]([C@@H](C)O)NC(=O)[C@H](CC(=O)O)NC(=O)CNC(=O)[C@H](CCCCN)NC(=O)[C@H](C)NC(=O)[C@H](CC(N)=O)NC(=O)[C@H](CC(C)C)NC(=O)[C@@H](Cc2ccc(O)cc2)NC(=O)CSC[C@@H](C(=O)NCC(N)=O)NC(=O)[C@H](Cc2ccc(O)cc2)NC(=O)[C@H]([C@@H](C)CC)NC1=O [Bpa-P2] ({CH2CO}-[dY]LNAKGDT[Bpa]FIIYCG-NH2; thioether N-14)
- protein modification (cross-linked BRD3-BD2) [2]: 78%

Molecule: cyclic-WKTIKGKTWRTKQC(S-) (sidechain bridge or staple) [3.1B, previously identified non-covalent cyclic peptide ligand of the first bromodomain of BRD3, BRD3-BD1]
- Kd [3]: 0.00049 µM

- binding result [4]: binds
B1: peptide 3.2B (peptide)
peptide: WSWLCKK(Ac)YNLIH
modifications: thioether (positions not given here); not fully specified (bridges); also: cyclic through C5 sulfur, other ring end not given here, bridge at 5, other end not in the chain
notes: Printed as cyclic-WSWLC(S-)KKYNLIH with the second K underlined (acetylated)
